Here are results for 5 molecules from patent publication US20250304620A1, “ANTIMICROBIAL PEPTIDE AND APPLICATION THEREOF” (priority 2023, published 2025).

≈ marks a conversion by molar mass, not a printed value. Where two headings read alike, the source gives them in different places. Marks after values point to notes of the source that are not given here. Non-standard residues stand in square brackets, D forms with d. Residues, ends and D or L forms follow the SMILES beside them. PEG200 = polyethylene glycol 200, conjugated to the C-terminus; PEG500 = polyethylene glycol 500, conjugated to the C-terminus; dPhe(3,4-F2) = N[C@H](Cc1ccc(F)c(F)c1)C(=O)O; 2Nal = N[C@@H](Cc1ccc2ccccc2c1)C(=O)O; d2Nal = N[C@H](Cc1ccc2ccccc2c1)C(=O)O; PEG1000 = polyethylene glycol 1000

Data set [1] deals with Staphylococcus aureus (NRS 384). Briefly: microbe, parasite or virus in culture. Format: cell-based. In outline: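 CLSI broth microdilution with serial twofold dilutions gave MICs against S. aureus NRS 384, with 5 parallel replicates. Levofloxacin and the AMP Cbf-K16 served as positive controls.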
In data set [2] the test system is Shigella flexneri ATCC 12022. The experiment in a line: MIC against clinically common bacterial strain. It counts as cell-based. In short, it runs like this: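 Serial twofold peptide dilutions were set up in microdilution format per CLSI, MICs were read, and the procedure was repeated in 5 parallel runs.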
Data set [3] relates to Escherichia coli ATCC 25922. The experiment in a line: Oral formulations on mice with systemic bacterial infection. It counts as in vivo, ICR mice. To be noted: three times a day for 7 days; for Number of mice that died on each day after infection: day 4 / Number of mice that died on each day after infection: day 5 / Number of mice that died on each day after infection: day 6 / Number of mice that died on each day after infection: day 7 / Number of mice that died on each day after infection: day 8 / Average survival times (Days): n = 10; for Average survival times (Days): observed for 14 d; for survival time of mice infected with Escherichia coli: gavage, observed 14 d. In outline:
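ICR mice of both sexes, 10 per group, infected i.p. with 0.2 mL E. coli ATCC 25922 at 1×10^7 CFU/mL. Compounds gavaged by body weight immediately after infection, three times daily for 7 days; deaths and survival time recorded over 14 d observation.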

A further data set relates to rabbit red blood cells. It counts as cell-based. To be noted: red cells of rabbit, 1 h.
Data set [4] relates to Methicillin-resistant Staphylococcus aureus (MRSA). It counts as in vivo, ICR mice. To be noted: 0.1 mL twice a day for 4 days, mouse back skin infection. As to the method:
(§1) Both female and male ICR mice were used in the test, half of the female and male mice were taken and randomly assigned into groups, with 10 mice in each group, and kept in separate cages. The mice were divided into a blank group, a model group, a positive control Methicillin group, and topical formulation groups of AMPs LV-1 to LV-30. Suspensions of Methicillin-sensitive Staphylococcus aureus (NRS 384) and Methicillin-resistant Staphylococcus aureus (MRSA) were prepared, and their concentrations were adjusted to a concentration of 5×10^6 CFU/mL for subsequent use. Hair on backs of the mice was shaved with a shaver, wound was created on back skin of each mouse using a biopsy punch, and the wound was then infected with Methicillin-sensitive Staphylococcus aureus and Methicillin-resistant Staphylococcus aureus (0.1 mL, 5×10^6 CFU/mL) to establish infection models. Except for the blank group and the model group, all other groups received corresponding topical formulations applied directly to the infected areas, with a dose of 0.1 mL, twice a day for 4 consecutive days. On the day following the final administration, skin from the infected sites of each group was aseptically collected, and an antibacterial rate was calculated.

In data set [5] the test system is Methicillin-sensitive Staphylococcus aureus (NRS 384). It counts as in vivo, ICR mice. To be noted: 0.1 mL twice a day for 4 days, mouse back skin infection. The procedure:
as §1

Setting [6] is: Staphylococcus aureus (NRS 384).

`CC(=O)N[C@H](CCCNC(=N)N)C(=O)N[C@H](CCCNC(=N)N)C(=O)N[C@H](CC(C)C)C(=O)N[C@H](CC(C)C)C(=O)N[C@H](Cc1ccc2ccccc2c1)C(=O)N[C@H](CCCCN)C(=O)N[C@H](CC(C)C)C(=O)N[C@H](CCCCN)C(=O)N[C@H](Cc1ccc2ccccc2c1)C(=O)N[C@H](CCCCN)C(=O)N[C@H](CCCNC(=N)N)C(N)=O` [LV-24] (Ac-[dR][dR][dL][dL][d2Nal][dK][dL][dK][d2Nal][dK][dR]-NH2): in data set [1] (NRS 384), the “MIC against Staphylococcus aureus (NRS 384)” value (from here on “MIC … (NRS 384)”) worked out at 1 µg/mL (≈ 0.607 µM). For the same molecule, in data set [2], the “MIC Shigella flexneri ATCC 12022” value was found to be 2 µg/mL (≈ 1.21 µM). For the same molecule, in data set [3] (1 mg/kg gavage), the “Number of mice that died on each day after infection: day 4” value (from here on “Number of mice that died … day 4”) is recorded as 1 Mouse, the “Number of mice that died on each day after infection: day 5” value (shortened to “Number of mice that died … day 5”) came to 1 Mouse, the “Number of mice that died on each day after infection: day 6” value (“Number of mice that died … day 6” below) turned out to be 0 Mouse and the “Number of mice that died on each day after infection: day 7” value (from here on “Number of mice that died … day 7”) is given as 2 Mouse. In data set [3] (1 mg/kg gavage), the “Number of mice that died on each day after infection: day 8” value (shortened to “Number of mice that died … day 8”) stood at 1 Mouse and the “Average survival times (Days)” value is listed as 10.1*** Days. In addition, in the data set with rabbit red blood cells, the “MHC (minimum hemolytic concentration, lowest concentration causing 10% hemolysis)” value was over 1000 µg/mL.
Turning to `CC(=O)N[C@H](CCCCN)C(=O)N[C@H](CCCCN)C(=O)N[C@H](CC(C)C)C(=O)N[C@H](CC(C)C)C(=O)N[C@H](Cc1ccc(F)c(F)c1)C(=O)N[C@H](CCCNC(=N)N)C(=O)N[C@H](CC(C)C)C(=O)N[C@H](CCCCN)C(=O)N[C@H](Cc1ccc(F)c(F)c1)C(=O)N[C@H](CCCNC(=N)N)C(=O)N[C@H](CCCCN)C(N)=O` [LV-25] (Ac-[dK][dK][dL][dL][dPhe(3,4-F2)][dR][dL][dK][dPhe(3,4-F2)][dR][dK]-NH2), the “MIC … (NRS 384)” value in data set [1] (NRS 384) is 1 µg/mL (≈ 0.629 µM). Also, in data set [2], the “MIC Shigella flexneri ATCC 12022” value is 2 µg/mL (≈ 1.26 µM). In data set [3] (0.2 mg/kg gavage), the “Number of mice that died … day 4” value was found to be 1 Mouse, the “Number of mice that died … day 5” value stood at 1 Mouse, the “Number of mice that died … day 6” value turned out to be 2 Mouse and the “Number of mice that died … day 7” value is given as 2 Mouse. Further, in data set [3] (0.2 mg/kg gavage), the “Number of mice that died … day 8” value is 1 Mouse and the “Average survival times (Days)” value is 8.5** Days. Also, in data set [3] (1 mg/kg gavage), the “Number of mice that died … day 4” value is listed as 1 Mouse, the “Number of mice that died … day 5” value is reported as 1 Mouse, the “Number of mice that died … day 6” value is listed as 0 Mouse and the “Number of mice that died … day 7” value is given as 1 Mouse. Further, in data set [3] (1 mg/kg gavage), the “Number of mice that died … day 8” value amounted to 1 Mouse and the “Average survival times (Days)” value is 10.8*** Days. In addition, in data set [3] (5 mg/kg gavage), the “Number of mice that died … day 4” value is 0 Mouse, the “Number of mice that died … day 5” value was determined as 3 Mouse, the “Number of mice that died … day 6” value came out at 0 Mouse and the “Number of mice that died … day 7” value is recorded as 2 Mouse. For the same molecule, in data set [3] (5 mg/kg gavage), the “Number of mice that died … day 8” value is on record as 0 Mouse and the “Average survival times (Days)” value was 9.9** Days. In addition, the “survival time of mice infected with Escherichia coli” value in data set [3] is recorded as “superior to those of the Levofloxacin group”. In addition, in the data set on rabbit red blood cells, the “MHC (minimum hemolytic concentration, lowest concentration causing 10% hemolysis)” value was over 1000 µg/mL.
With “Ac-RKLLXRLKXRK-PEG200 [LV-26] (Ac-RKLL[2Nal]RLK[2Nal]RK-PEG200) [polyethylene glycol 200 conjugated to C-terminal; X=3-(2-naphthyl)-alanine]”, the “MIC … (NRS 384)” value in data set [1] (setting [6]) stood at 1 µg/mL. Moreover, the “MIC Shigella flexneri ATCC 12022” value in data set [2] stood at 4 µg/mL. In data set [3] (1 mg/kg gavage), the “Number of mice that died … day 4” value is 2 Mouse, the “Number of mice that died … day 5” value was found to be 1 Mouse, the “Number of mice that died … day 6” value turned out to be 0 Mouse and the “Number of mice that died … day 7” value came out at 1 Mouse. Further, in data set [3] (1 mg/kg gavage), the “Number of mice that died … day 8” value is given as 1 Mouse and the “Average survival times (Days)” value was 9.8** Days. The “Inhibition rate against Methicillin-resistant Staphylococcus aureus (%)” value in data set [4] (topical formulation 0.2 mg/mL) worked out at 86.51%. In data set [4] (topical formulation 1 mg/mL), the “Inhibition rate against Methicillin-resistant Staphylococcus aureus (%)” value amounted to 86.79%. In addition, the “Inhibition rate against Methicillin-resistant Staphylococcus aureus (%)” value in data set [4] (topical formulation 5 mg/mL) is 87.56%. For the same molecule, in data set [5] (topical formulation 0.2 mg/mL), the “Inhibition rate against Methicillin-sensitive Staphylococcus aureus (%)” value amounted to 96.35%. Besides, the “Inhibition rate against Methicillin-sensitive Staphylococcus aureus (%)” value in data set [5] (topical formulation 1 mg/mL) is on record as 96.92%. Further, in data set [5] (topical formulation 5 mg/mL), the “Inhibition rate against Methicillin-sensitive Staphylococcus aureus (%)” value was 97.87%.
On to “Ac-RKLLXRLKXRK-PEG500 [LV-27] (Ac-RKLL[2Nal]RLK[2Nal]RK-PEG500) [polyethylene glycol 500 conjugated to C-terminal; X=3-(2-naphthyl)-alanine]”, for which the “MIC … (NRS 384)” value in data set [1] (setting [6]) came out at 1 µg/mL. Besides, the “MIC Shigella flexneri ATCC 12022” value in data set [2] amounted to 2 µg/mL. The figures for the “Number of mice that died … day 4” value in data set [3] (0.2 mg/kg gavage), in data set [3] (1 mg/kg gavage) and in data set [3] (5 mg/kg gavage) were 1 Mouse, 0 Mouse and 0 Mouse, respectively. Besides, the “Number of mice that died … day 5” value stood at 1 Mouse in data set [3] (0.2 mg/kg gavage), 1 Mouse in data set [3] (1 mg/kg gavage) and 2 Mouse in data set [3] (5 mg/kg gavage). In addition, the “Number of mice that died … day 6” value is on record as 2 Mouse in data set [3] (0.2 mg/kg gavage), 1 Mouse in data set [3] (1 mg/kg gavage) and 1 Mouse in data set [3] (5 mg/kg gavage). The entries for the “Number of mice that died … day 7” value in data set [3] (0.2 mg/kg gavage), in data set [3] (1 mg/kg gavage) and in data set [3] (5 mg/kg gavage) were 1 Mouse, 0 Mouse and 0 Mouse, respectively. In addition, the “Number of mice that died … day 8” value in data set [3] (0.2 mg/kg gavage) is reported as 0 Mouse; in data set [3] (1 mg/kg gavage), 1 Mouse; in data set [3] (5 mg/kg gavage), 0 Mouse. In addition, the “Average survival times (Days)” value is 9.8** Days in data set [3] (0.2 mg/kg gavage), 11.7**** Days in data set [3] (1 mg/kg gavage) and 11.4**** Days in data set [3] (5 mg/kg gavage). In data set [3], the “survival time of mice infected with Escherichia coli” value is reported as “superior to those of the Levofloxacin group”. Moreover, the “Inhibition rate against Methicillin-resistant Staphylococcus aureus (%)” value in data set [4] (topical formulation 0.2 mg/mL) is given as 86.50%; in data set [4] (topical formulation 1 mg/mL), 89.66%; in data set [4] (topical formulation 5 mg/mL), 88.02%. Besides, the entries for the “Inhibition rate against Methicillin-sensitive Staphylococcus aureus (%)” value in data set [5] (topical formulation 0.2 mg/mL), in data set [5] (topical formulation 1 mg/mL) and in data set [5] (topical formulation 5 mg/mL) were 97.01%, 98.74% and 97.65%, respectively.
As to “Ac-RKLLXRLKXRK-PEG1000 [LV-28] (Ac-RKLL[2Nal]RLK[2Nal]RK-PEG1000) [polyethylene glycol 1000 conjugated to C-terminal; X=3-(2-naphthyl)-alanine]”, in data set [1] (setting [6]), the “MIC … (NRS 384)” value worked out at 1 µg/mL. In data set [2], the “MIC Shigella flexneri ATCC 12022” value was 4 µg/mL. In data set [3] (1 mg/kg gavage), the “Number of mice that died … day 4” value is listed as 1 Mouse, the “Number of mice that died … day 5” value is given as 2 Mouse, the “Number of mice that died … day 6” value turned out to be 1 Mouse and the “Number of mice that died … day 7” value was 1 Mouse. Further, in data set [3] (1 mg/kg gavage), the “Number of mice that died … day 8” value stood at 0 Mouse and the “Average survival times (Days)” value is 9.7** Days. In addition, the “Inhibition rate against Methicillin-resistant Staphylococcus aureus (%)” value in data set [4] (topical formulation 0.2 mg/mL) is listed as 86.23%. Moreover, in data set [4] (topical formulation 1 mg/mL), the “Inhibition rate against Methicillin-resistant Staphylococcus aureus (%)” value stood at 87.81%. Moreover, in data set [4] (topical formulation 5 mg/mL), the “Inhibition rate against Methicillin-resistant Staphylococcus aureus (%)” value is reported as 88.66%. Further, in data set [5] (topical formulation 0.2 mg/mL), the “Inhibition rate against Methicillin-sensitive Staphylococcus aureus (%)” value amounted to 96.03%. In data set [5] (topical formulation 1 mg/mL), the “Inhibition rate against Methicillin-sensitive Staphylococcus aureus (%)” value stood at 96.75%. Besides, the “Inhibition rate against Methicillin-sensitive Staphylococcus aureus (%)” value in data set [5] (topical formulation 5 mg/mL) turned out to be 97.82%.
